The values that follow come from patent US20220289708A1, “SUBSTITUTED N-PHENYL URACILS, SALTS THEREOF AND THEIR USE AS HERBICIDAL AGENTS” (Bayer Aktiengesellschaft, priority 2019, published 2022).

Holding throughout (assay type): in vivo
The test system of one series is Zea mays. Briefly: Post-emergence crop plant compatibility. The procedure, abridged:
(§1)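 Greenhouse crop plants in sandy loam sprayed at one-leaf stage (2-3 weeks after sowing) with WP or EC formulations plus 0.5% additive, 600 l/ha water, at 5 g/ha or 20 g/ha. Damage scored visually after about 3 weeks as % versus untreated controls (100% = plants dead).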

In a further series the test system is Oryza sativa. Briefly: Post-emergence crop plant compatibility. The method, boiled down:
as §1

For a further series, the system named is Lolium rigidum. Nature of the series: Post-emergence herbicidal action. The following applies: application rate 20 g/ha, rated visually after about 3 weeks vs untreated controls. The method, boiled down: (§2)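 Percent activity, judged by eye about 3 weeks after treatment relative to untreated plants, ranges from 0% (as control) to 100% (plants dead). Foliar application at 20 g/ha and less was made at the one-leaf stage using a 600 l/ha aqueous spray containing 0.5% additive.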

A further series concerns Setaria viridis. Briefly: Post-emergence herbicidal action. The note with it: rated visually after about 3 weeks vs untreated controls. The method, boiled down:
as §2

Another series has as its system Pharbitis purpurea. Briefly: Post-emergence herbicidal action. The following applies: rated visually after about 3 weeks vs untreated controls. The method, boiled down: as §2
A further series has as its system Digitaria sanguinalis. Nature of the series: Post-emergence herbicidal action. The following applies: rated visually after about 3 weeks vs untreated controls. The procedure, abridged: as §2
The next series deals with Alopecurus myosuroides. Briefly: Post-emergence herbicidal action. The note with it: rated visually after about 3 weeks vs untreated controls. The method, boiled down: as §2
The test system of the next series is Echinochloa crus-galli. Briefly: Post-emergence herbicidal action. The note with it: rated visually after about 3 weeks vs untreated controls. The procedure, abridged:
as §2

The subject of the next series is Abutilon theophrasti. Nature of the series: Post-emergence herbicidal action. The following applies: rated visually after about 3 weeks vs untreated controls. The method, boiled down:
as §2

In another series the test system is Viola tricolor. Briefly: Post-emergence herbicidal action. The method, boiled down:
as §2

For another series, the system named is Amaranthus retroflexus. Briefly: Post-emergence herbicidal action. The following applies: rated visually after about 3 weeks vs untreated controls. The method, boiled down: as §2
The next series concerns Matricaria inodora. Nature of the series: Post-emergence herbicidal action. The note with it: rated visually after about 3 weeks vs untreated controls. The method, boiled down:
as §2

The next series concerns Avena fatua. Nature of the series: Post-emergence herbicidal action. The note with it: application rate 20 g/ha, rated visually after about 3 weeks vs untreated controls. The procedure, abridged:
as §2

Another series deals with Veronica persica. Briefly: Post-emergence herbicidal action. The method, boiled down:
as §2

The test system of a further series is Polygonum convolvulus. Briefly: Post-emergence herbicidal action. The procedure, abridged:
as §2

The next series relates to Stellaria media. Nature of the series: Post-emergence herbicidal action. The following applies: application rate 5 g/ha, rated visually after about 3 weeks vs untreated controls. The method, boiled down: as §2
In the next series the test system is Hordeum murinum. Nature of the series: Post-emergence herbicidal action. The note with it: application rate 20 g/ha. The procedure, abridged: as §2
A further series deals with Triticum aestivum. Nature of the series: Post-emergence crop plant compatibility. The note with it: application rate 5 g/ha. The procedure, abridged: as §1

For the molecule `CCOCCOC(=O)COc1ncccc1Oc1cc(-n2c(=O)cc(C(F)(F)F)n(C)c2=O)c(F)cc1[N+](=O)[O-]` [I.14-2], the “Zea mays (efficacy in %)” value with Zea mays (application rate 5 g/ha) was found to be 20%. Further, the “Oryza sativa (efficacy in %)” value with Oryza sativa (application rate 20 g/ha) was determined as 10%. Further, the “Lolium rigidum (efficacy in %)” value in the series with Lolium rigidum is listed as 90%. Also, the “Setaria viridis (efficacy in %)” value in the series with Setaria viridis (application rate 20 g/ha) turned out to be 100%. For the same molecule, the “Pharbitis purpurea (efficacy in %)” value in the series on Pharbitis purpurea (application rate 20 g/ha) is 100%. Besides, in the series with Digitaria sanguinalis (application rate 20 g/ha), the “Digitaria sanguinalis (efficacy in %)” value worked out at 100%. The “Alopecurus myosuroides (efficacy in %)” value in the series with Alopecurus myosuroides (application rate 20 g/ha) was determined as 100%. In addition, the “Echinochloa crus-galli (efficacy in %)” value in the series on Echinochloa crus-galli (application rate 20 g/ha) is recorded as 100%. Further, in the series on Abutilon theophrasti (application rate 20 g/ha), the “Abutilon theophrasti (efficacy in %)” value is 100%. In addition, the “Viola tricolor (efficacy in %)” value with Viola tricolor (application rate 20 g/ha) is 100%. Further, the “Amaranthus retroflexus (efficacy in %)” value in the series with Amaranthus retroflexus (application rate 20 g/ha) came to 100%. In addition, the “Matricaria inodora (efficacy in %)” value with Matricaria inodora (application rate 20 g/ha) was determined as 100%. Also, the “Avena fatua (efficacy in %)” value with Avena fatua turned out to be 100%. Besides, in the series on Veronica persica (application rate 20 g/ha), the “Veronica persica (efficacy in %)” value is 100%.

For the molecule `Cn1c(C(F)(F)F)cc(=O)n(-c2cc(Sc3cccnc3SCC(=O)OCC3CCCO3)c(Cl)cc2F)c1=O` (stereo not shown) [I.10-71], the “Zea mays (efficacy in %)” value with Zea mays (application rate 5 g/ha) stood at 20%. In the series with Oryza sativa (application rate 5 g/ha), the “Oryza sativa (efficacy in %)” value came to 20%. The “Lolium rigidum (efficacy in %)” value in the series with Lolium rigidum was 80%. Besides, the “Setaria viridis (efficacy in %)” value in the series with Setaria viridis (application rate 5 g/ha) is reported as 100%. Besides, the “Pharbitis purpurea (efficacy in %)” value with Pharbitis purpurea (application rate 5 g/ha) was found to be 100%. Also, the “Digitaria sanguinalis (efficacy in %)” value in the series on Digitaria sanguinalis (application rate 5 g/ha) worked out at 90%. The “Alopecurus myosuroides (efficacy in %)” value in the series on Alopecurus myosuroides (application rate 5 g/ha) was determined as 80%. In addition, the “Polygonum convolvulus (efficacy in %)” value with Polygonum convolvulus (application rate 5 g/ha) came out at 100%. Also, the “Echinochloa crus-galli (efficacy in %)” value in the series on Echinochloa crus-galli (application rate 5 g/ha) was found to be 100%. Moreover, the “Abutilon theophrasti (efficacy in %)” value in the series on Abutilon theophrasti (application rate 5 g/ha) is on record as 100%. Also, in the series on Viola tricolor (application rate 5 g/ha), the “Viola tricolor (efficacy in %)” value worked out at 100%. For the same molecule, the “Amaranthus retroflexus (efficacy in %)” value with Amaranthus retroflexus (application rate 5 g/ha) is 100%. The “Matricaria inodora (efficacy in %)” value in the series on Matricaria inodora (application rate 5 g/ha) worked out at 80%. In addition, the “Avena fatua (efficacy in %)” value with Avena fatua stood at 80%. For the same molecule, the “Veronica persica (efficacy in %)” value in the series on Veronica persica (application rate 5 g/ha) stood at 90%. Moreover, the “Stellaria media (efficacy in %)” value in the series on Stellaria media stood at 100%. In addition, the “Hordeum murinum (efficacy in %)” value with Hordeum murinum is 80%.

For `COCCOC(=O)COc1ncccc1Oc1cc(-n2c(=O)cc(C(F)(F)F)n(C)c2=O)c(F)cc1[N+](=O)[O-]` [I.14-1], the “Zea mays (efficacy in %)” value in the series with Zea mays (application rate 5 g/ha) was found to be 10%. In addition, in the series with Oryza sativa (application rate 5 g/ha), the “Oryza sativa (efficacy in %)” value was 0%. Also, in the series on Lolium rigidum, the “Lolium rigidum (efficacy in %)” value was 80%. Further, the “Setaria viridis (efficacy in %)” value in the series on Setaria viridis (application rate 20 g/ha) is given as 100%. Also, the “Pharbitis purpurea (efficacy in %)” value in the series on Pharbitis purpurea (application rate 20 g/ha) amounted to 100%. In the series on Digitaria sanguinalis (application rate 20 g/ha), the “Digitaria sanguinalis (efficacy in %)” value worked out at 100%. In the series with Alopecurus myosuroides (application rate 20 g/ha), the “Alopecurus myosuroides (efficacy in %)” value was determined as 90%. In addition, the “Polygonum convolvulus (efficacy in %)” value in the series with Polygonum convolvulus (application rate 20 g/ha) worked out at 100%. Besides, the “Echinochloa crus-galli (efficacy in %)” value in the series with Echinochloa crus-galli (application rate 20 g/ha) came to 100%. Moreover, the “Abutilon theophrasti (efficacy in %)” value with Abutilon theophrasti (application rate 20 g/ha) came out at 100%. Besides, in the series with Viola tricolor (application rate 20 g/ha), the “Viola tricolor (efficacy in %)” value is 100%. The “Amaranthus retroflexus (efficacy in %)” value in the series with Amaranthus retroflexus (application rate 20 g/ha) was determined as 100%. For the same molecule, the “Matricaria inodora (efficacy in %)” value in the series on Matricaria inodora (application rate 20 g/ha) is listed as 100%. Also, the “Avena fatua (efficacy in %)” value in the series with Avena fatua was 80%. In addition, in the series on Veronica persica (application rate 20 g/ha), the “Veronica persica (efficacy in %)” value is on record as 100%.

On to `Cn1c(C(F)(F)F)cc(=O)n(-c2cc(Oc3cccnc3OCC(=O)OCC#N)c(Cl)cc2F)c1=O` [I.15-176], for which the “Triticum aestivum (efficacy in %)” value in the series on Triticum aestivum is 20%. Moreover, the “Zea mays (efficacy in %)” value with Zea mays (application rate 5 g/ha) was 20%. For the same molecule, in the series with Oryza sativa (application rate 5 g/ha), the “Oryza sativa (efficacy in %)” value was 20%. Further, the “Setaria viridis (efficacy in %)” value in the series on Setaria viridis (application rate 5 g/ha) came out at 100%. In addition, in the series with Pharbitis purpurea (application rate 5 g/ha), the “Pharbitis purpurea (efficacy in %)” value was found to be 100%. Besides, the “Digitaria sanguinalis (efficacy in %)” value with Digitaria sanguinalis (application rate 5 g/ha) is reported as 100%. The “Alopecurus myosuroides (efficacy in %)” value with Alopecurus myosuroides (application rate 5 g/ha) was 80%. Besides, the “Polygonum convolvulus (efficacy in %)” value with Polygonum convolvulus (application rate 5 g/ha) is on record as 100%. The “Echinochloa crus-galli (efficacy in %)” value in the series on Echinochloa crus-galli (application rate 5 g/ha) was 100%. The “Abutilon theophrasti (efficacy in %)” value in the series with Abutilon theophrasti (application rate 5 g/ha) was found to be 100%. Besides, in the series on Viola tricolor (application rate 5 g/ha), the “Viola tricolor (efficacy in %)” value amounted to 100%. Moreover, the “Amaranthus retroflexus (efficacy in %)” value in the series on Amaranthus retroflexus (application rate 5 g/ha) worked out at 100%. In addition, the “Matricaria inodora (efficacy in %)” value in the series with Matricaria inodora (application rate 20 g/ha) came to 100%. In addition, the “Avena fatua (efficacy in %)” value in the series with Avena fatua came out at 90%. In addition, the “Veronica persica (efficacy in %)” value in the series with Veronica persica (application rate 5 g/ha) is 90%. Besides, in the series on Stellaria media, the “Stellaria media (efficacy in %)” value was 100%. Moreover, the “Hordeum murinum (efficacy in %)” value with Hordeum murinum was 100%.

With `COCCOCCOC(=O)COc1ncccc1Oc1cc(-n2c(=O)cc(C(F)(F)F)n(C)c2=O)c(F)cc1[N+](=O)[O-]` [I.14-23], in the series on Zea mays (application rate 20 g/ha), the “Zea mays (efficacy in %)” value is on record as 10%. The “Oryza sativa (efficacy in %)” value with Oryza sativa (application rate 20 g/ha) came to 10%. In addition, the “Setaria viridis (efficacy in %)” value in the series on Setaria viridis (application rate 20 g/ha) is given as 100%. Besides, in the series on Pharbitis purpurea (application rate 20 g/ha), the “Pharbitis purpurea (efficacy in %)” value worked out at 100%. The “Digitaria sanguinalis (efficacy in %)” value in the series on Digitaria sanguinalis (application rate 20 g/ha) came out at 100%. Besides, the “Polygonum convolvulus (efficacy in %)” value in the series on Polygonum convolvulus (application rate 20 g/ha) is reported as 100%. In addition, the “Echinochloa crus-galli (efficacy in %)” value with Echinochloa crus-galli (application rate 20 g/ha) came to 100%. For the same molecule, the “Abutilon theophrasti (efficacy in %)” value in the series with Abutilon theophrasti (application rate 20 g/ha) is on record as 100%. Besides, in the series with Viola tricolor (application rate 20 g/ha), the “Viola tricolor (efficacy in %)” value is 100%. Also, the “Amaranthus retroflexus (efficacy in %)” value with Amaranthus retroflexus (application rate 20 g/ha) is 100%. Further, the “Matricaria inodora (efficacy in %)” value in the series with Matricaria inodora (application rate 20 g/ha) turned out to be 100%. In addition, the “Veronica persica (efficacy in %)” value with Veronica persica (application rate 20 g/ha) was found to be 100%.

With `Cn1c(C(F)(F)F)cc(=O)n(-c2cc(Oc3cccnc3OCC(=O)OC3COC3)c([N+](=O)[O-])cc2F)c1=O` [I.14-115], the “Zea mays (efficacy in %)” value in the series on Zea mays (application rate 5 g/ha) amounted to 20%. Also, the “Oryza sativa (efficacy in %)” value with Oryza sativa (application rate 20 g/ha) stood at 20%. In the series on Setaria viridis (application rate 20 g/ha), the “Setaria viridis (efficacy in %)” value is on record as 100%. Moreover, the “Pharbitis purpurea (efficacy in %)” value in the series with Pharbitis purpurea (application rate 20 g/ha) was found to be 100%. Also, the “Digitaria sanguinalis (efficacy in %)” value in the series on Digitaria sanguinalis (application rate 20 g/ha) stood at 100%. For the same molecule, the “Alopecurus myosuroides (efficacy in %)” value with Alopecurus myosuroides (application rate 20 g/ha) came out at 100%. The “Polygonum convolvulus (efficacy in %)” value in the series with Polygonum convolvulus (application rate 20 g/ha) was determined as 100%. The “Echinochloa crus-galli (efficacy in %)” value in the series on Echinochloa crus-galli (application rate 20 g/ha) came out at 100%. Moreover, the “Viola tricolor (efficacy in %)” value in the series on Viola tricolor (application rate 20 g/ha) stood at 100%. In the series with Amaranthus retroflexus (application rate 20 g/ha), the “Amaranthus retroflexus (efficacy in %)” value was found to be 100%. Further, the “Matricaria inodora (efficacy in %)” value in the series on Matricaria inodora (application rate 20 g/ha) was 100%. Further, the “Avena fatua (efficacy in %)” value in the series on Avena fatua came out at 80%. The “Veronica persica (efficacy in %)” value in the series with Veronica persica (application rate 20 g/ha) is given as 100%.
